From US20250035641A1, “COMPOSITIONS AND METHODS RELATED TO PROTEIN LABELING” (The Chinese University of Hong Kong, priority 2023, published 2025)

Assays:
[1] = target: HTN-CK2α (Homo sapiens, UniProt P68400); experiment: Chemoenzymatic labelling and mass-shift assay, HTN-CK2α; type: cell-based; parameters: expressed in transfected cells; host or cells: HEK293T (A5, A6); HeLa (A8); conditions: 1 μM
Excerpt: Ck2α is a well-studied OGT substrate.^17,25 Its Ser347 is conservatively O-GlcNAcylated and this modification was reported to affect its kinase activity.^16,17 We first co-expressed HTN-Ck2α and fOGT in HEK293T cells at different ratio and found the basal O-GlcNAcylation level of HTN-Ck2α was higher than what we detected in the case of HTN-BRD4. Therefore, a lower ratio of fOGT expression (1:100) was selected for the assessment of OGTAC potency (FIG. 9). […] The induction of specific O-GlcNAcylation on HTN-Ck2α was further confirmed by mass-shift assay. […] To validate the direct binding to both fOGT and HTN-Ck2α is critical, we exploited AP 1867 and rhodamine ligand, which bind to fOGT and HTN-Ck2α respectively, to co-treat with OGTAC-1.
For each chemoenzymatic labelling reaction. 2×10^5 HEK293T cells were seed to each well of 6 well plate. After cells attached, transfection reagents and plasmids were prepared and added in DMEM. After 24 h transfection, media were replaced by fresh warm complete media with DMSO or probes. […] The supernatant of lysate was then quantified by bicinchoninic acid (BCA) assay and normalized to 2 mg/mL with 1% SDS in buffer. […]

[2] = target: T1, HTN-BRD4 and 0tfOGT (Homo sapiens, UniProt O60885+P62942, F37V); experiment: Washout / reversibility study, HTN-BRD4:0tfOGT; type: cell-based; conditions: 500 nM 4 h pretreatment, then fresh media
T1 construct: HaloTag fragment; 0TPR(463-1046)-; expressed in transfected cells; host or cells: HEK293T
Procedure: FIGS. 7A-7E: Specificity and reversibility of OGTAC strategy. […] (B), Constructs of fOGT with 13.5 (rounded to 13) TPR and 0TPR-fOGT (0tfOGT). (C). […] (D), Dose-dependent O-GlcNAcylation profile of HTN-BRD4 by OGTAC-4 treatment. HEK293T cells expressing HTN-BRD4:0tfOGT=1:0.05 were treated with an increasing concentration of OGTAC-4 for 4 h. Then, the O-GlcNAcylation level of HTN-BRD4 was assessed by immunoblot after IP using BRD4 antibody. All quantifications are shown as mean±s.e.m. of n=3 biologically independent experiments. (E), Reversible effect of OGTAC-4 on HTN-BRD4 can be achieved by addition of AP1867. HEK293T cells expressing HTN-BRD4:0tfOGT=1:0.05 were pretreated with OGTAC-4 (500 nM) or DMSO for 4 h, and culturing media were replaced by fresh media with DMSO or AP1867 (50 μM) for the indicated time. The quantifications in right panel were conducted by the normalizing the fold-change (OGTAC-4/DMSO) for each post-washout time point to the value of 4 h pre-treatment. All quantifications are shown as mean±s.e.m. of 3 independent biological repeats. Statistical significance was calculated with ordinary one-way ANOVA comparing samples with different transfection conditions or OGTAC-treatment. ns, p≥0.05; *p<0.05; **p<0.01; ***p<0.001; ****p<0.0001.
To assess the potential application of our OGTAC strategy in downstream biological studies, we investigated the reversibility of OGTACs. […] Additionally. the O-GlcNAc level of BRD4 returned to baseline after 6 hours of AP1867 treatment, confirming the reversibility of the induction effect (FIG. 7E).
For each IP reaction, 2.2×10^6 HEK293T cells were seed in 10 cm dish. After cells attached, transfection reagents and plasmids were prepared and added in DMEM. After 24 h transfection, media were replaced by fresh warm complete media with DMSO or probes. For washout study, after 4 h treatment, media with DMSO or OGTAC-4 (500 nM) were replaced by fresh media with DMSO or AP1867 (50 μM) for further incubation. After certain time of OGTACs treatment, cells were collected by cold PBS and lysed by 200 μL complete IP lysis buffer. […]

HTN-CK2α, sequence (P68400 with tags, fused parts or gaps): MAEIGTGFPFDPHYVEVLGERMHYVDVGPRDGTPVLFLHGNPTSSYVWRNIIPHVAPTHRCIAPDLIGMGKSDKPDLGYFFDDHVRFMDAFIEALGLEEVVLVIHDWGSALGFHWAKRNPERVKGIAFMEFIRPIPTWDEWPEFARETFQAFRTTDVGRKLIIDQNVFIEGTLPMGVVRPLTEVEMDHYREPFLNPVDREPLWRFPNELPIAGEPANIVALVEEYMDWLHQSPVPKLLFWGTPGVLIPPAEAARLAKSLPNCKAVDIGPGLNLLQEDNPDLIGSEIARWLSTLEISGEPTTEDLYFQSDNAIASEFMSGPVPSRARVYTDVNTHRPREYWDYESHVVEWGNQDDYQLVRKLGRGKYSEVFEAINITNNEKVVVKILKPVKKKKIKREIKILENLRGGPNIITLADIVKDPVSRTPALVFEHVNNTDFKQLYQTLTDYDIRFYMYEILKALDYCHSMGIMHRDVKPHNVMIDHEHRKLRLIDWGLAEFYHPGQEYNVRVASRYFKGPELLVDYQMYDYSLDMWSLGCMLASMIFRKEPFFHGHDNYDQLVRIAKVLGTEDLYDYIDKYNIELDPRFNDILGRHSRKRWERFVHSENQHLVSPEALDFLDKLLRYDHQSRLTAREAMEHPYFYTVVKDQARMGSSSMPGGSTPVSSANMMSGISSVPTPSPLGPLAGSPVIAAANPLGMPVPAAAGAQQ
HTN-CK2α, sequence (P62942+O15294 fused P62942:F37V partner): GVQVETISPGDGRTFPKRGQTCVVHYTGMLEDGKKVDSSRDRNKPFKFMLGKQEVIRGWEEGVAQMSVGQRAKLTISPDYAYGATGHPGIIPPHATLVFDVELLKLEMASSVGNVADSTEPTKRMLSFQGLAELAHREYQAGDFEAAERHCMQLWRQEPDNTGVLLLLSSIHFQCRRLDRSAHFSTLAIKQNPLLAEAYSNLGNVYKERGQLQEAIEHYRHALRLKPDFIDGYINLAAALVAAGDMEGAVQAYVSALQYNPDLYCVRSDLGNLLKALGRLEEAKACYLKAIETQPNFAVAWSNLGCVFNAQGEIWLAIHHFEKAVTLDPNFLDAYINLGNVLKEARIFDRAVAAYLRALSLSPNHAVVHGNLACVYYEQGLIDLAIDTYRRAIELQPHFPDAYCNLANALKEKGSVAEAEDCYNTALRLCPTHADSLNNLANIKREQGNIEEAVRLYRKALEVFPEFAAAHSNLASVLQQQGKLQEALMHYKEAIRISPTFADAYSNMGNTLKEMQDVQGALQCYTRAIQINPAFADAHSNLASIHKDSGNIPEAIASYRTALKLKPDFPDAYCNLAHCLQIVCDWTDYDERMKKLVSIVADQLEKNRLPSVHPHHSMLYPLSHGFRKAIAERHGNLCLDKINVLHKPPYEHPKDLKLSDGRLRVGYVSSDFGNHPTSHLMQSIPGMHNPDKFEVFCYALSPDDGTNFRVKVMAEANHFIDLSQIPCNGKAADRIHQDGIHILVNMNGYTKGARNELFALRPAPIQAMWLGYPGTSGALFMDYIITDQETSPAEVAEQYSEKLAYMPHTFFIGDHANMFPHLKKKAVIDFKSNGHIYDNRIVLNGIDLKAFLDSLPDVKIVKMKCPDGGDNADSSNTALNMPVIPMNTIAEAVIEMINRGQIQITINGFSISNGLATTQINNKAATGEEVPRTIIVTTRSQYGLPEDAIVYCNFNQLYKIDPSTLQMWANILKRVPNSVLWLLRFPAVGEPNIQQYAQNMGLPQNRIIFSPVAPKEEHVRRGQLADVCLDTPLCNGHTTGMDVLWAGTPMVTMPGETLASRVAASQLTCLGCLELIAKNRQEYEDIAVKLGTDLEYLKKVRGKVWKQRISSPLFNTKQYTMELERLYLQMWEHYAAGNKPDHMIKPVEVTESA
T1 sequence (P62942 whole entry F37V, stated change not applied, other chains not shown, the tested form may be a part): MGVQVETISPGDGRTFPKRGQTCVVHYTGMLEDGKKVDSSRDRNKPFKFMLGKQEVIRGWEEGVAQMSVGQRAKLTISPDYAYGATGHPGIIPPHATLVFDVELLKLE

| HTN-CK2α O-GlcNAcylation in mass-shift assay [1] | O-GlcNAc induction and ternary complex formation after washout [2] | SMILES |
| --- | --- | --- |
| increased HTN-CK2α O-GlcNAcylation |  | CC[C@H](C(=O)N1CCCC[C@H]1C(=O)O[C@H](CCc1ccc(OC)c(OC)c1)c1cccc(OCC(=O)NCCOCCOCCCCCCCl)c1)c1cc(OC)c(OC)c(OC)c1 [OGTAC-1, (R)-1-(3-(2-((2-(2-((6-chlorohexyl)oxy)ethoxy)ethyl)amino)-2-oxoethoxy)phenyl)-3-(3,4-dimethoxyphenyl)propyl (S)-1-((S)-2-(3,4,5-trimethoxyphenyl)butanoyl) piperidine-2-carboxylate] |
|  | persisted post-washout | CC[C@H](C(=O)N1CCCC[C@H]1C(=O)O[C@H](CCc1ccc(OC)c(OC)c1)c1cccc(OCC(=O)NCCCCCCNC(=O)C[C@@H]2N=C(c3ccc(Cl)cc3)c3c(sc(C)c3C)-n3c(C)nnc32)c1)c1cc(OC)c(OC)c(OC)c1 [OGTAC-4, (R)-1-(3-(2-((6-(2-((S)-4-(4-chlorophenyl)-2,3,9-trimethyl-6H-thieno[3,2-f[]8 1,2,4]triazolo[4,3-a][1,4]diazepin-6-yl)acetamido)hexyl)amino)-2-oxoethoxy)phenyl)-3-(3,4-dimethoxyphenyl)propyl (S)-1-((S)-2-(3,4,5-trimethoxyphenyl)butanoyl)piperidine-2-carboxylate] |
